Results on 28 compounds are retold here after patent US9000175B2, “Bicyclic GPR119 modulators” (Lupin Limited, priority 2010, dated 2015).

The assay has as its target T1, human GPR119 (Homo sapiens, UniProt Q8TDV5).
T1 construct: expressed in transfected cells
T1 sequence (Q8TDV5 1-335): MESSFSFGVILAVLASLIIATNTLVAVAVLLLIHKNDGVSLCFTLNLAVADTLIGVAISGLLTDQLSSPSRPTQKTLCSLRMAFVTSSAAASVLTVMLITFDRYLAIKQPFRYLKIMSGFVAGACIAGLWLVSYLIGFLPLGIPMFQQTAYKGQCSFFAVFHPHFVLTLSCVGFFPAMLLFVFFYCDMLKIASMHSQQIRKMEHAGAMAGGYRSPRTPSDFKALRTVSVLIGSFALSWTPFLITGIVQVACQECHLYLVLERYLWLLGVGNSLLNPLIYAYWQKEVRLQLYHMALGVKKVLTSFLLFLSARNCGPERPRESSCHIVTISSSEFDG
Put plainly: Cyclic AMP assay in stable cell line. It counts as cell-based. Particulars: CHO-K1 cells stably transfected with human GPR119; cAMP levels (FRET, cAMP femto kit); 1 h at 37° C; read-out: EC50 Range. As for the experimental part: Cyclic AMP Assay in Stable Cell Line:
Chinese Hamster Ovary (CHO-K1) cells were stably transfected with human GPR119 and were maintained in Ham's F-12 complete medium containing 10% heat inactivated FBS (Sigma, UK). The cells were maintained under a selection pressure with 500 μg/ml G418 (GENETICIN). Stable clones were analyzed for functional cAMP response to OEA (oleoylethanolamide).
To estimate activation of GPR119 and induction of cAMP levels by GPR119 agonists, cells were serum starvation for 18-24 h, trypsinized and seeded in 96 well plates at a, density of 7500 cells/well. The cells were then treated with test compounds diluted in serum free Ham's F12 for 1 h at 37° C. The cAMP levels were measured by using the cAMP femto kit (CisBio) by following the manufacturer's instructions. Following treatment with a test compound, the cells were lysed and cAMP levels were estimated by adding D2-labelled cAMP and europium-cryptate conjugated anti-cAMP antibody. Close proximity of D2 and cryptate results in FRET and the subsequent fluorescence that is measured at 665 and 620 nm. The FRET response is calculated as the ratio of fluorescence at 665 to fluorescence at 620 nm. The unlabelled cAMP produced as a result of GPR119 activation/agonism competes with the D2-cAMP leading to a decrease in the FRET signal. Thus the FRET signal is inversely proportional to the amount of cAMP produced by the treated cells. In a separate set of wells, known concentrations of cAMP were added in order to get a standard linear curve for extrapolation of the cAMP values in the unknown/test samples. Fluorescence was measured on BMG Labtech PHERAstar machine.
The concentration of compound required to stimulate a half-maximal response (EC50) was determined using the GraphPad Prism software.
The compounds prepared were tested using the above assay procedure and the results obtained are given below.
In general terms: Cyclic AMP is a second messenger, typically raised through Gs and lowered through Gi signalling.

Molecules are shown by their SMILES. “And” between values parts separate entries of the source, which are not always exact repeats. Equal entries are not always repeated.

Turning to `CC(C)C(=O)Nc1ccc2c(ccn2-c2ccc(OC3CCN(c4nc(C(C)C)no4)CC3)cn2)c1` [Example-57, N-(1-(5-((1-(3-Isopropyl-1,2,4-oxadiazol-5-yl)piperidin-4-yl)oxy)pyridin-2-yl)-1H-indol-5-yl)isobutyramide], the EC50 is less than 50 nM.
For `CCc1cnc(N2CCC(Oc3ccc(-n4ccc5cc(C#N)ccc54)nc3)CC2)nc1` [Example-58, 1-(5-((1-(5-Ethylpyrimidin-2-yl)piperidin-4-yl)oxy)pyridin-2-yl)-1H-indole-5-carbonitrile] the value was 250 to 1000 nM; for `CC(C)NC(=O)c1ccc2c(ccn2-c2ccc(OC3CCN(C(=O)OC(C)(C)C)CC3)cn2)c1` [Example-62, tert-Butyl-4-((6-(5-(isopropylcarbamoyl)-1H-indol-1-yl)pyridin-3-yl)oxy) piperidine-1-carboxylate], 50 to 250 nM.
As for `CNC(=O)c1ccc2c(ccn2-c2ccc(OCC3CCN(C(=O)OC(C)(C)C)CC3)cn2)c1` [Example-66, tert-Butyl-4-(((6-(5-(methylcarbamoyl)-1H-indol-1-yl)pyridin-3-yl)-oxy)methyl)piperidine-1-carboxylate], the figure is 50 to 250 nM.
As for `CCc1cnc(N2CCC(COc3ccc(-n4ccc5cc(C(=O)NC)ccc54)nc3)CC2)nc1` [Example-67, 1-(5-((1-(5-Ethylpyrimidin-2-yl)piperidin-4-yl)methoxy)pyridin-2-yl)-N-methyl-1H-indole-5-carboxamide], the EC50 lay in the range of 50 to 250 nM.
For `CC(C)OC(=O)N1CCC(Oc2ccc(-n3ccc4cc(C(=O)N5CCCC5)ccc43)nc2)CC1` [Example-70, Isopropyl 4-((6-(5-(pyrrolidine-1-carbonyl)-1H-indol-1-yl)pyridin-3-yl)oxy)piperidine-1-carboxylate] the value was 50 to 250 nM; for `CCc1cnc(N2CCC(Oc3ccc(-n4ccc5cc(C(=O)N6CCCC6)ccc54)nc3)CC2)nc1` [Example-71, (1-(5-((1-(5-Ethylpyrimidin-2-yl)piperidin-4-yl)oxy)pyridin-2-yl)-1H-indol-5-yl)(pyrrolidin-1-yl)methanone], less than 50 nM.
As for `CC(C)NC(=O)c1ccc2c(ccn2-c2ccc(OC3CCN(C(=O)OC(C)C)CC3)cn2)c1` [Example-72, Isopropyl 4-((6-(5-(isopropylcarbamoyl)-1H-indol-1-yl)pyridin-3-yl)oxy) piperidine-1-carboxylate], the figure is 250 to 1000 nM and 50 to 250 nM.
As for `CC(C)OC(=O)N1CCC(Oc2ccc(-n3ccc4cc(C(=O)N(C)C)ccc43)nc2)CC1` [Example-74, Isopropyl 4-((6-(5-(dimethylcarbamoyl)-1H-indol-1-yl)pyridin-3-yl)oxy) piperidine-1-carboxylate], the figure is less than 50 nM; as for `CC(C)(C)OC(=O)N1CCC(Oc2ccc(-n3ccc4cc(C(=O)NCCO)ccc43)nc2)CC1` [Example-76, tert-Butyl-4-((6-(5-((2-hydroxyethyl)carbamoyl)-1H-indol-1-yl)-pyridin-3-yl)oxy)piperidine-1-carboxylate], 50 to 250 nM; as for `CCc1cnc(N2CCC(Oc3ccc(-n4ccc5cc(C(=O)NCCO)ccc54)nc3)CC2)nc1` [Example-77, 1-(5-((1-(5-Ethylpyrimidin-2-yl)piperidin-4-yl)oxy)pyridin-2-yl)-N-(2-hydroxyethyl)-1H-indole-5-carboxamide], less than 50 nM.
On to `CC(C)c1noc(CN2CCC(Oc3ccc(-n4ccc5cc(S(C)(=O)=O)ccc54)nc3)CC2)n1` [Example-80, 3-Isopropyl-5-((4-((6-(5-(methylsulfonyl)-1H-indol-1-yl)pyridin-3-yl)oxy)piperidin-1-yl)methyl)-1,2,4-oxadiazole], for which the EC50 is less than 50 nM.
As for `CS(=O)(=O)c1ccc2c(ccn2-c2ccc(OC3CCN(Cc4ccc(F)cc4)CC3)cn2)c1` [Example-82, 1-(5-((1-(4-Fluorobenzyl)piperidin-4-yl)oxy)pyridin-2-yl)-5-(methylsulfonyl)-1H-indole], the figure is 50 to 250 nM; as for `CC(C)c1noc(CN2CCC(Oc3ccc(-n4ccc5cc(C(=O)N(C)C)ccc54)nc3)CC2)n1` [Example-84], 250 to 1000 nM; as for `CCc1cnc(N2CCC(Oc3ccc(-n4ccc5cc(C(=O)NCC(F)(F)F)ccc54)nc3)CC2)nc1` [Example-88, 1-(5-((1-(5-Ethylpyrimidin-2-yl)piperidin-4-yl)oxy)pyridin-2-yl)-N-(2,2,2-trifluoroethyl)-1H-indole-5-carboxamide], 250 to 1000 nM.
For `CC(C)(C)OC(=O)N1CCC(Oc2ccc(-n3ccc4cc(S(C)(=O)=O)cc(F)c43)nc2)CC1` [Example-91, tert-Butyl-4-((6-(7-fluoro-5-(methylsulfonyl)-1H-indol-1-yl)pyridin-3-yl)oxy)piperidine-1-carboxylate] the value was less than 50 nM; for `Cc1noc(N2CCC(Oc3ccc(-n4ccc5cc(S(C)(=O)=O)ccc54)nc3)CC2)n1` [Example-92, 3-Methyl-5-(4-((6-(5-(methylsulfonyl)-1H-indol-1-yl)pyridin-3-yl)oxy)piperidin-1-yl)-1,2,4-oxadiazole], 50 to 250 nM.
Turning to `CC(C)(C)OC(=O)N1CCC(Oc2ccc(-n3ccc4cc(CO)ccc43)nc2)CC1` [Example-94, tert-Butyl-4-((6-(5-(hydroxymethyl)-1H-indol-1-yl)pyridin-3-yl)oxy)piperidine-1-carboxylate], the EC50 lay in the range of 250 to 1000 nM.
For `CCc1cnc(N2CCC(Oc3ccc(-n4ccc5cc(CNC(=O)C(C)C)ccc54)nc3)CC2)nc1` [Example-98, N-((1-(5-((1-(5-Ethylpyrimidin-2-yl)piperidin-4-yl)oxy)pyridin-2-yl)-1H-indol-5-yl)methyl)isobutyramide] the value was less than 50 nM; for `CC(C)c1noc(-c2ccc3c(ccn3-c3ccc(OC4CCN(C(=O)OC(C)(C)C)CC4)cn3)c2)n1` [Example-99, tert-Butyl-4-((6-(5-(3-isopropyl-1,2,4-oxadiazol-5-yl)-1H-indol-1-yl)pyridin-3-yl)oxy)piperidine-1-carboxylate], 250 to 1000 nM.
For `CCc1cnc(N2CCC(Oc3ccc(-n4ccc5cc(-c6nc(C(C)C)no6)ccc54)nc3)CC2)nc1` [Example-100, 5-(1-(5-((1-(5-Ethylpyrimidin-2-yl)piperidin-4-yl)oxy)pyridin-2-yl)-1H-indol-5-yl)-3-isopropyl-1,2,4-oxadiazole] the value was 250 to 1000 nM; for `CCc1cnc(N2CCC(Oc3ccc(-n4ccc5cc(-c6nc(C)no6)ccc54)nc3)CC2)nc1` [Example-103, 5-(1-(5-((1-(5-Ethylpyrimidin-2-yl)piperidin-4-yl)oxy)pyridin-2-yl)-1H-indol-5-yl)-3-methyl-1,2,4-oxadiazole], 50 to 250 nM; for `CCOC(=O)N1CCC(OCc2ccc(-n3ccc4cc(S(C)(=O)=O)ccc43)nc2)CC1` [Example-107, Ethyl 4-((6-(5-(methylsulfonyl)-1H-indol-1-yl)pyridin-3-yl)methoxy) piperidine-1-carboxylate], 250 to 1000 nM.
For `CC(C)OC(=O)N1CCC(OCc2ccc(-n3ccc4cc(S(C)(=O)=O)ccc43)nc2)CC1` [Example-108, Isopropyl 4-((6-(5-(methylsulfonyl)-1H-indol-1-yl)pyridin-3-yl)methoxy)piperidine-1-carboxylate] the value was 50 to 250 nM; for `Cc1noc(N2CCC(OCc3ccc(-n4ccc5cc(S(C)(=O)=O)ccc54)nc3)CC2)n1` [Example-112, 3-Methyl-5-(4-((6-(5-(methylsulfonyl)-1H-indol-1-yl)pyridin-3-yl)methoxy)piperidin-1-yl)-1,2,4-oxadiazole], 250 to 1000 nM; for `CCc1cnc(N2CCC(OCc3ccc(N4CCc5cc(S(C)(=O)=O)ccc54)nc3)CC2)nc1` [Example-113, 1-(5-(((1-(5-Ethylpyrimidin-2-yl)piperidin-4-yl)oxy)methyl)pyridin-2-yl)-5-(methylsulfonyl)indoline], 250 to 1000 nM.
Consider `CCc1cnc(N2CCC(Oc3ccc(-n4ccc5cc(NC(=O)C(C)(C)C)ccc54)nc3)CC2)nc1` [Example-118, N-(1-(5-((1-(5-Ethylpyrimidin-2-yl)piperidin-4-yl)oxy)pyridin-2-yl)-1H-indol-5-yl)pivalamide], for which the EC50 is less than 50 nM.
`CCc1cnc(N2CCC(Nc3ccc(-n4ccc5cc(S(C)(=O)=O)ccc54)nc3)CC2)nc1` [Example-119, N-(1-(5-Ethylpyrimidin-2-yl)piperidin-4-yl)-6-(5-(methylsulfonyl)-1H-indol-1-yl)pyridin-3-amine]: the EC50 was in the range of 50 to 250 nM.

As usually defined, the EC50 is the concentration needed to bring the measured effect to its halfway point.
